The source made the active and inactive calls. The calls are words filed in the database; no cut-off is given here.
Legend:
Mus musculus [1] = organism: Mus musculus; assay: Activation of PKC in mouse neurospheres derived neural precursor cells assessed as increase in cell proliferation by measuring increase in neurosphere size at 5 to 10 uM after 72 hrs in presence of EGF and bFGF by phase contrast microscopic based analysis
Mus musculus [2] = organism: Mus musculus; assay: Activation of PKC in mouse neurospheres derived neural precursor cells assessed as cell proliferation by measuring neurosphere size at 1 uM after 72 hrs in presence of EGF and bFGF by phase contrast microscopic based analysis
Mus musculus [3] = organism: Mus musculus; assay: Activation of PKC in mouse neurospheres derived neural precursor cells assessed as cell proliferation by measuring neurosphere size at 1 to 10 uM after 72 hrs in presence of EGF by phase contrast microscopic based analysis
[4] = Effect on self-renewal capacity in mouse neurospheres derived neural precursor cells assessed as neurosphere number at 1 to 10 uM after 72 hrs in presence of bFGF by phase contrast microscopic based analysis; type: ADME
Mus musculus [5] = organism: Mus musculus; assay: Activation of PKC in mouse neurospheres derived neural precursor cells assessed as increase in cell proliferation by measuring increase in neurosphere size after 72 hrs in presence of EGF and bFGF by phase contrast microscopic based analysis
[6] = Effect on self renewal capacity in mouse neurospheres derived neural precursor cells assessed as neurosphere number at 1 to 10 uM after 72 hrs in presence of EGF and bFGF by phase contrast microscopic based analysis; type: ADME
[7] = Effect on self-renewal capacity in mouse neurospheres derived neural precursor cells assessed as neurosphere number at 1 to 10 uM after 72 hrs in presence of EGF by phase contrast microscopic based analysis; type: ADME
[8] = Effect on cell viability in mouse neurospheres derived neural precursor cells assessed as neurosphere number at 1 to 10 uM after 72 hrs in presence of bFGF and EGF by phase contrast microscopic based analysis
[9] = Effect on cell viability in mouse neurospheres derived neural precursor cells assessed as neurosphere number at 1 to 10 uM after 72 hrs in presence of bFGF by phase contrast microscopic based analysis
Mus musculus [10] = organism: Mus musculus; assay: Activation of PKC in mouse neurospheres derived neural precursor cells assessed as cell proliferation by measuring neurosphere size at 1 to 10 uM after 72 hrs in presence of bFGF by phase contrast microscopic based analysis
[11] = Effect on cell viability in mouse neurospheres derived neural precursor cells assessed as neurosphere number at 1 to 10 uM after 72 hrs in presence of EGF by phase contrast microscopic based analysis
Mus musculus [12] = organism: Mus musculus; assay: Activation of PKC in mouse neurospheres derived neural precursor cells assessed as increase in cell proliferation by measuring increase in neurosphere area at 5 uM after 72 hrs in presence of EGF and bFGF by phase contrast microscopic based analysis

| Activity (Mus musculus [1]) | Activity (Mus musculus [2]) | Activity (Mus musculus [3]) | Activity (Mus musculus [5]) | Activity (Mus musculus [10]) | Activity (Mus musculus [12]) | SMILES | Activity [4] | Activity [6] | Activity [7] | Activity [8] | Activity [9] | Activity [11] |
| --- | --- | --- | --- | --- | --- | --- | --- | --- | --- | --- | --- | --- |
| Active | inactive | inactive | Dose-dependent effect | inactive |  | CC(=O)O[C@@H]1[C@@H]2[C@@H](OC(C)=O)[C@]3(CC[C@H]4[C@@H](/C=C(\C)C(=O)[C@@]2(OC(C)=O)C[C@@H]1C)C4(C)C)CO3 | Non-Toxic | Non-Toxic | Non-Toxic | Non-Toxic | Non-Toxic | Non-Toxic |
|  |  |  |  |  | Active | C=C1CC[C@H]2[C@@H](/C=C(\C)C(=O)[C@@]3(OC(C)=O)C[C@H](C)[C@H](OC(C)=O)[C@@H]3[C@H]1OC(C)=O)C2(C)C | Non-Toxic | Non-Toxic | Non-Toxic | Non-Toxic | Non-Toxic | Non-Toxic |

Reference: ChEMBL document CHEMBL4414582, “Lathyrane, Premyrsinane, and Related Diterpenes from Euphorbia boetica: Effect on in Vitro Neural Progenitor Cell Proliferation” (J Nat Prod, 2019)
